Source: US5039791A, “Peptide fragments of tissue plasminogen activator” (Monsanto Company, priority 1989, dated 1991)
“Also recorded” adds a separate entry of the source. Where no end group is shown, it is not given here.

How the values were obtained:
[1] = system: human umbilical vein endothelial cells; assay: Endothelial cell binding assay: binding of [125I]-tPA to endothelial cells; details: for inhibition of binding of tPA to endothelial cells (FIG. 3): 15 μg/ml peptide, about 20 ng/ml [125I]-tPA, 4° C., 90 minutes; for dose response of inhibition of binding of tPA to endothelial cells (FIG. 4): several peptide concentrations
Procedure: Peptides from FIG. 1 were examined for their ability to inhibit the binding of [^125 I]-tPA to human umbilical vein endothelial cells. Assays were performed as described under Materials and Methods, below, using a final peptide concentration of 15 μg/ml. All samples were assayed in duplicate. Bar height represents the result obtained for one duplicate point and the corresponding error bar represents the result obtained for the other. Results are shown in percent inhibition of binding.
Assays examining the binding of [^125 I]-tPA to endothelial cells were performed by a conventional method essentially as described by Hajjar et al., J. Clin. Invest. 80, 1712-1719 (1987), and Beebe, Thromb. Res. 46, 241-254 (1987). Briefly, cells were grown to confluence in 24-well dishes using MCDB107 growth medium supplemented with 180 μg/ml heparin, 30 μg/ml ECGS, 100 μg/ml gentamicin and 10% fetal bovine serum. Immediately prior to assay, plates were chilled to 4° C. and all wells were aspirated. Cells were washed 3 times with binding buffer (PBS, pH 7.2, 5.0 mg/ml BSA, 10 mM glucose, 0.01% Tween 80). Five hundred μl of buffer containing approximately 20 ng/ml of [^125 I]-tPA and a test sample of peptide was then added. Incubations proceeded at 4° C. for 90 minutes. At the end of the incubation time, cells were washed rapidly 4 times with 500 μl aliquots of binding buffer. Cells were separated from the plates using 3% sodium dodecylsulfate (SDS) and the amount of radioactivity present was determined. Nonspecific binding was determined by carrying out incubations in the presence of an excess (2.0 μg/ml) of unlabeled tPA.
The peptides shown in Table 1 were examined for their effect on the binding of tPA to cultured human umbilical vein endothelial cells. […] All points were run in duplicate and nonspecific binding was subtracted in each case.

fibrin = target: T1, fibrin (Homo sapiens, UniProt P02671+P02675+P02679); assay: Fibrin binding: binding of tPA to fibrin, tPA antigen in supernatant by ELISA; details: 15 μg/ml peptide; 200 ng/ml single chain melanoma tPA, 200 μg/ml human fibrinogen; no peptide = 48
T1 construct: purchased Kabi Vitrum
T1 sequence (P02671 20-644 isoform P02671-2 limits assumed): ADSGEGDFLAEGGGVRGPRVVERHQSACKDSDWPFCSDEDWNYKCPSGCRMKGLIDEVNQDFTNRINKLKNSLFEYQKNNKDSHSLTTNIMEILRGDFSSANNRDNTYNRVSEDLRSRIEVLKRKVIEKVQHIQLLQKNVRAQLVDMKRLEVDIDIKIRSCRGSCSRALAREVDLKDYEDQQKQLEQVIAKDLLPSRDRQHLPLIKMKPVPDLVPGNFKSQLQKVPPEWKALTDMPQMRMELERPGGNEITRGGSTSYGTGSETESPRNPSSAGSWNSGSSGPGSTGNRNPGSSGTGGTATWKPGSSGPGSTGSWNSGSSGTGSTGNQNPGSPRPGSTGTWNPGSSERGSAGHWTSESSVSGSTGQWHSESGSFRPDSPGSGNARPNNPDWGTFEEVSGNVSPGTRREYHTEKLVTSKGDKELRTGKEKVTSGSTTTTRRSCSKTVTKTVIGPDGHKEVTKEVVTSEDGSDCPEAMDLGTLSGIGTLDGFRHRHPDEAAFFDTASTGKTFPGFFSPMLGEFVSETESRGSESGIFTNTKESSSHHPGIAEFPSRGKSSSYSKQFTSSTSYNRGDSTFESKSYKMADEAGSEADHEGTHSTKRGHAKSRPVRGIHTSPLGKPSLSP
T1 sequence (P02675 45-491 limits assumed): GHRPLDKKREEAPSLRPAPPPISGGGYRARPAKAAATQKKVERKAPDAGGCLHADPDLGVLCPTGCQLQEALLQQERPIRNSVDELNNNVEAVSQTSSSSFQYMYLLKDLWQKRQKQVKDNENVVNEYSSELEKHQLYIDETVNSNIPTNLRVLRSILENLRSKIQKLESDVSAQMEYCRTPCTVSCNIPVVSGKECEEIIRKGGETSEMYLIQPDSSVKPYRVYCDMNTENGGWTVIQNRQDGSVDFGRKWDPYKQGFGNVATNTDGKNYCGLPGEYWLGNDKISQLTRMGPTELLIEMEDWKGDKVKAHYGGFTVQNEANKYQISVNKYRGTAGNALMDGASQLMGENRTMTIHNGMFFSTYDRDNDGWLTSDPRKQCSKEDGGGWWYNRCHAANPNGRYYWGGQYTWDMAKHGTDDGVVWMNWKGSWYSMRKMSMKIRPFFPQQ
T1 sequence (P02679 27-437 isoform P02679-2 limits assumed): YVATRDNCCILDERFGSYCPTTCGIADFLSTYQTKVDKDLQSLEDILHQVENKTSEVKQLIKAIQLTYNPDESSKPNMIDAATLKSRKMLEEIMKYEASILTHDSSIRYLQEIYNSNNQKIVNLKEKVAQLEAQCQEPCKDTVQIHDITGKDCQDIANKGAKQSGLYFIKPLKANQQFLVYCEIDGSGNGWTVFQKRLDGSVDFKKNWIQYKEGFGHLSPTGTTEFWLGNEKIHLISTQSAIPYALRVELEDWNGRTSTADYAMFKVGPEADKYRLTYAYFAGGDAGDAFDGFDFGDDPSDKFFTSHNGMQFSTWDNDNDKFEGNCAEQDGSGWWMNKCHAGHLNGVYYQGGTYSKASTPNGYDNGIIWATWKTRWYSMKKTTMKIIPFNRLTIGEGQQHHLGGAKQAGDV
Procedure: Binding of tPA to fibrin was measured using the conventional method of Rijken et al., J. Biol. Chem. 257, 2920-2925 (1982). This method involves mixing thrombin with a solution containing tPA and fibrinogen, centrifuging the resulting clot and measuring the concentration of tPA antigen in the supernatant. In a final volume of 200 μl, the following were combined: 200 ng/ml single chain melanoma tPA, 200 μg/ml human fibrinogen, 15 μg/ml tPA peptide, 1.1 mg/ml bovine serum albumin, 0.55 mg/ml bovine gamma globulin and 10 mM ε-amino caproic acid in PBSAT. Controls omitted fibrinogen, peptide or both. Mixtures were clotted by the addition of 1 unit/ml bovine thrombin, incubated one hour at room temperature and centrifuged. tPA antigen in the supernatant was measured by conventional ELISA and the percentage bound calculated by difference using the antigen level of a control mixture with no fibrinogen as 0% bound. […] An ELISA assay kit for tPA and PAI-1 was purchased from American Diagnostica Inc. and assays were performed according to printed protocols supplied by the manufacturer with the kit except that a single lot of melanoma tPA from American Diagnostica Inc. (product 111, lot 47-01) was used as the antigen standard throughout this work and 5.0 mg/ml of BSA and 2.5 mg/ml of bovine gamma globulin were included in ELISA buffers.

| Substance | inhibition of binding of tPA to endothelial cells (FIG. 3) [1] | % Bound (binding of tPA to fibrin) (fibrin) [%] | dose response of inhibition of binding of tPA to endothelial cells (FIG. 4) [1] |
| --- | --- | --- | --- |
| LGKHNYCRNPDGDAKPWCHVLKNRR-amide (LGKHNYCRNPDGDAKPWCHVLKNRR-NH2; cysteine pairing not given here) [Peptide 166, 25 amino acid synthetic peptide amide fragment of native human tPA] | effective at inhibiting the binding of tPA to cells | 57 | – |
| NPDRDSKPWCYVFKAGKYSSEFCST-amide (NPDRDSKPWCYVFKAGKYSSEFCST-NH2; cysteine pairing not given here) [Peptide 158, 25 amino acid synthetic peptide amide fragment of native human tPA] | inhibited the binding of tPA to endothelial cells; also recorded: more effective at inhibiting endothelial cell binding relative to the other active peptides | 53 | concentration dependent manner |
| VPVKSCSEPRCFNGGTCQQALYFSD-amide (VPVKSCSEPRCFNGGTCQQALYFSD-NH2; cysteine pairing not given here) [Peptide 148, 25 amino acid synthetic peptide amide fragment of native human tPA] | inhibited the binding of tPA to endothelial cells | 50 | concentration dependent manner |
